Results on one compound are retold here after article PMC8284473, “Preliminary Characterization of NP339, a Novel Polyarginine Peptide with Broad Antifungal Activity” (Antimicrobial Agents and Chemotherapy, 2021).

Molecules are shown by their SMILES.

A short description of data set [1]: Tolerability in mouse models of infection. Conditions: at the therapeutic doses and duration of therapy used. It is filed as in vivo. The protocol: In all experiments, the animals were housed 4 or 5/cage in sterilized individual ventilated cages exposing the mice at all times to HEPA-filtered sterile air. Food and water were available ad libitum, and sterile aspen chip bedding was changed at least once weekly. The room temperature was 22 ± 1°C, with a relative humidity of 60% and maximum background noise of 56 dB. Mice were exposed to 12-h light/dark cycles. Before the experiments, the animals were randomly divided into groups. After the experiments, the animals were sacrificed by humane euthanasia by delivering 0.5 ml of 200 mg/ml pentobarbital solution via intraperitoneal injection. For quantification of fungal burden, samples were diluted appropriately and then quantitatively cultured on to SAB containing 0.05 mg/ml chloramphenicol and incubated at 37°C for 24 to 48 h before enumeration.
Male CD1 mice (n = 24 mice, 6 to 8 weeks of age, average weight of 23.5 g) were obtained from Charles River, Margate, United Kingdom. […] The mice were culled 29 h postinfection, and fungal kidney burdens were determined by plating as previously described.
Female BALB/c mice (n = 24 mice, 6 to 8 weeks of age, weight of 16 to 18 g) were obtained from Charles River, Margate, United Kingdom. […] At 3 days postinfection, fungal burdens in vaginal lavage samples were determined as described above. […]

Data set [2] has as its system A549 epithelial lung cell line. The data set is described as follows: NP339 cytotoxicity, LIVE/DEAD staining. It is filed as cell-based, human. The note with it: A549 monolayer, 3 h, 37°C, RPMI 1640; concentrations hundreds of folds above antifungal; n = 2. The method, then: Lung epithelial cells (A549 cells; ATCC [distributed by LGC Promochem, Teddington, United Kingdom]) were cultured in a 96-well plate in Ham’s F-12K medium (Fisher Scientific UK, Ltd.) supplemented with 10% (vol/vol) fetal bovine serum. The cells were incubated under 5% CO2 at 37°C until 90% confluent. NP339 solutions and 0.25% SDS (the kill control) were prepared in prewarmed RPMI 1640 medium. Once the cells reached 90% confluence, the culture medium was removed from the 96-well plate, taking care not to disturb the cells, and 100 μl of NP339 solution was added to the cell monolayer. The plates were incubated at 37°C under 5% CO2 for 3 h. Toxicity was determined using the Molecular Probes LIVE/DEAD Viability/Cytotoxicity kit, as per the manufacturer’s instructions. As the kill control, 0.25% (wt/vol) SDS was used. Untreated cells were the live control (cells incubated with the medium).

A further data set deals with human PBMCs. As to the kind of experiment: NP339 cytotoxicity, LIVE/DEAD staining. Conditions: human PBMCs 5 × 10^5 cells/well, 2 h, 37°C, RPMI 1640; concentrations hundreds of folds above antifungal; n = 2. It is filed as cell-based. The protocol:
PBMCs were isolated from fresh human whole blood using Leucosep tubes (Greiner Bio-One), according to the manufacturer’s instructions. The cells were suspended in RPMI 1640 medium (5 × 10^6 cells/ml) and transferred to 96-well plate (5 × 10^5 cells/well). NP339 solutions were prepared in prewarmed RPMI 1640 medium and added to the cell suspension. The plates were incubated at 37°C under 5% CO2 for 2 h. Toxicity was determined using the Molecular Probes LIVE/DEAD Viability/Cytotoxicity kit (Fisher Scientific UK, Ltd.). As the kill control, 0.1% (vol/vol) Triton X-100 was used. Untreated cells were the live control.

The test system of another data set is human whole blood. The note with it: human whole blood exposed to the peptide; data not shown.

Turning to `N=C(N)NCCC[C@H](NC(=O)[C@H](CCCNC(=N)N)NC(=O)[C@H](CCCNC(=N)N)NC(=O)[C@H](CCCNC(=N)N)NC(=O)[C@H](CCCNC(=N)N)NC(=O)[C@H](CCCNC(=N)N)NC(=O)[C@H](CCCNC(=N)N)NC(=O)[C@H](CCCNC(=N)N)NC(=O)[C@H](CCCNC(=N)N)NC(=O)[C@H](CCCNC(=N)N)NC(=O)[C@H](CCCNC(=N)N)NC(=O)[C@H](CCCNC(=N)N)NC(=O)[C@@H](N)CCCNC(=N)N)C(=O)O` [NP339], the Tolerability entry in data set [1] is on record as “well tolerated”. For the same compound, the “Cytotoxicity (live/dead cell ratio)” value (in data set [2]; in the data set on human PBMCs) was “not toxic” each time. The “Nonspecific immune response (cytokine measurements)” value in the data set with human whole blood is “did not elicit a nonspecific immune response”.
